Experimental data reported in patent publication US7767398B2, “Means and methods for diagnosing and treating affective disorders” (Affectis Pharmaceuticals AG, priority 2003, dated 2010).

Legend:
P2X7R = target: T1, P2X7R (Mus musculus, UniProt Q9Z1M0); assay: Entry of ethidium bromide into HT-22 cells; type: cell-based; details: HT-22 cells, 60 minutes, 10^−4M ethidium bromide; 1 μM to 1 mM tested
T1 construct: an immortalised mouse hippocampal cell line expressing the endogenous P2X7 gene; endogenous in cells; host or cells: HT-22 mouse hippocampal cell line
T1 sequence (Q9Z1M0 1-595): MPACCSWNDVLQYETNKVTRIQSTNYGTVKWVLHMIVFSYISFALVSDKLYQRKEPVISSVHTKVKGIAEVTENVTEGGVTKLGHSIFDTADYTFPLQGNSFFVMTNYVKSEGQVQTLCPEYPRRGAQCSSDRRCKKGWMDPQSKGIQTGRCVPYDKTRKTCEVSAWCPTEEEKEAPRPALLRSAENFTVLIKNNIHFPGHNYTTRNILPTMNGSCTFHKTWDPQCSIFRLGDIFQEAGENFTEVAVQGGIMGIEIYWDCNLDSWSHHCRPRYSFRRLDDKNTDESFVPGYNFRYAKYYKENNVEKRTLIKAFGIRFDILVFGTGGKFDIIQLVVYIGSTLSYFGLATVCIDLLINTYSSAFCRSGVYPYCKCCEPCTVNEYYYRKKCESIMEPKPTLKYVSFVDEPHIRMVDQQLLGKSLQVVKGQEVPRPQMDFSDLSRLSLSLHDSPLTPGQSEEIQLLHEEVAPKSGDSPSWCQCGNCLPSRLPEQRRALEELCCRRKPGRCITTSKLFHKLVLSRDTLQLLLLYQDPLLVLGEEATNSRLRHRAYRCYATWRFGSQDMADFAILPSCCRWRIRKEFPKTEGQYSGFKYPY
Excerpt: Yet another method of measuring P2X7R activity involves the entry of ethidium bromide into P2X7R expressing cells. Activation of P2X7R by an agonist allows the entry of ethidium bromide which binds nuclear DNA and emits a fluorescence signal. Alternatively, the propidium dye YOPRO-1 can be substituted for ethidium bromide. An increase in fluorescence can be used as a measure of P2X7 receptor activation. Therefore, the assay can be used to test and quantify the effect of an agent or compound with agonist properties on P2X7R. In the present example, 10^3 HT-22 cells were seeded per well in a 96-well flat bottom microtitre plates and incubated at 37° C./5% CO2 in DMEM medium containing 10% FCS until the cells attached to the culture surface. […] The number of fluorescent cells which have integrated the ethidium bromide to the DNA can then be counted using a fluorescent microscope (Zeiss, Germany). […] Alternatively, ethidium bromide fluorescence can be measured using a Perkin-Elmer fluorescent plate reader (excitation 520 nm, emission 595 nm, slit widths: Ex 15 nm, Em 20 nm). From the readings obtained, a pIC50 figure can be calculated for each candidate agent or compound. […] The specificity of an agonist for P2X7R can be evaluated by pre-incubation of the cells for 60 minutes with 100 μM o-ATP before adding the agonist and ethidium bromide dye.

human P2X7R = target: T2, human P2X7R (Homo sapiens, UniProt Q99572); assay: Calcium entry in HT-22 cells overexpressing human P2X7R (Fluo-4 AM); type: cell-based; details: 20 μM BzATP or 50 μM tenidap
T2 construct: expressed in transfected cells
T2 sequence (Q99572 1-595): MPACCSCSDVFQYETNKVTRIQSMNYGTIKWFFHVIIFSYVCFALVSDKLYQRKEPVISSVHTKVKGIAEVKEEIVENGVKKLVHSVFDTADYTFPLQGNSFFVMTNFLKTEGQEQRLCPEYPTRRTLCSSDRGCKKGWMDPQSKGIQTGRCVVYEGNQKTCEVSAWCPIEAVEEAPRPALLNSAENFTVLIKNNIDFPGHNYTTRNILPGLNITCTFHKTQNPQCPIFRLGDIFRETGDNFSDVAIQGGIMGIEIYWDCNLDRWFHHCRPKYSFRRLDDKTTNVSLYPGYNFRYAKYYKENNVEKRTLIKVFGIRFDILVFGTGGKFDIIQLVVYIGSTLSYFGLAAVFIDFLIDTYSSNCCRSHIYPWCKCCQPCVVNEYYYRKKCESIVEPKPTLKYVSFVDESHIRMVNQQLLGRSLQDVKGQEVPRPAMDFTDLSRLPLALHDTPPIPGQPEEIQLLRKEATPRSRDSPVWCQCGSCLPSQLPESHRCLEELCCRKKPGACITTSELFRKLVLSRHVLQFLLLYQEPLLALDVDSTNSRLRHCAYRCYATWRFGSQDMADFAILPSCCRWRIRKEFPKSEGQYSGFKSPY
Excerpt: Yet another method for identifying P2X7R agonists was devised by generating a immortalised mouse cell line that overexpresses the human P2X7R gene under the control of the human cytomegalovirus (CMV) early promoter/enhancer region. The human P2X7R cDNA was inserted into the pcDNA3.1 vector (Invitrogen) and transfected into the mouse hippocampal cell line HT-22 using Lipofectamine (Invitrogen) according to the manufacturer's specifications. One day after transfection, culture medium containing 500 μg/ml G418 was added to the cells. Resistant clones were separately isolated and cultured 14 days after applying the selection medium.
The agonistic activity of a compound was evaluated by measuring calcium entry in the cells that overexpress the human P2X7R. Cells were cultured in 96 well plates and incubated at 37° C. with 5% C02 DMEM with 10% foetal calf serum (Gibco) until they reached confluence. Cells were then loaded for one hour with 10 μM of Fluo4 AM (Molecular Probes). Fluo-4 AM is a fluorescent dye that binds to intracellular calcium. […] Agonist activity was detected by measuring an increase in calcium influx which results in increased binding to Fluo4 AM and increased fluorescence. Changes in fluorescence signal are measured using a Fluostar Optima plate reader (BMG biotech). […] Thus, both compound stimulated the activity of P2X7R which results in an influx of ions into the cells.

2′-3′-O-(4-Benzoylbenzoyl)adenosine 5′-triphosphate [BzATP]
BzATP concentrations that increased the number of fluorescent nuclei (P2X7R): above 100 μM
calcium influx (Fluo-4 AM fluorescence intensity) (human P2X7R): rapid increase in fluorescence intensity
